In the supplement of paper PMC7840683:
Structures can show the parent of a compound that is named as a salt. ± gives the standard deviation of the averaged measurements.

Tested on: HepaRG
Test: LDH release cytotoxicity, % of total lysis control; higher = more cytotoxic
Details: 48 h
Summary of the method: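 HepaRG cells from a single lot were plated on collagen I-coated 96-well plates and treated in duplicate for 48 h with eight-point half-log series of test chemicals, starting at 100 µM, in serum-free induction medium containing 0.5% DMSO. Total lysis wells were given 0.1% Triton X. LDH released into 50 µL of spent medium was measured as resorufin fluorescence with CytoTox-ONE on a Tecan Safire. Percent cytotoxicity was normalized to on-plate vehicle and total lysis controls and then averaged across duplicates.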

| Compound | LDH release cytotoxicity (0.03162 µM) | LDH release cytotoxicity (0.1 µM) | LDH release cytotoxicity (0.3162278 µM) | LDH release cytotoxicity (1 µM) | LDH release cytotoxicity (3.16228 µM) | LDH release cytotoxicity (10 µM) | LDH release cytotoxicity (31.6228 µM) | LDH release cytotoxicity (100 µM) | further results |
| --- | --- | --- | --- | --- | --- | --- | --- | --- | --- |
| Clc1ccccc1-c1nnc(-c2ccccc2Cl)nn1 [Clofentezine] | -1.43 ± 0.094% | -0.835 ± 0.41% | -0.246 ± 0.27% | -1.9 ± 0.72% | -0.967 ± 0.31% | -1.22 ± 0.43% | -0.912 ± 0.23% | 0.757 ± 0.29% |  |
| CCOC(=O)C(C)(C)Oc1ccc(Cl)cc1 [Clofibrate] | -0.811 ± 0.59% | -0.737 ± 0.38% | -1.03 ± 0.3% | -0.873 ± 1.4% | -1.56 ± 0.66% | -0.987 ± 0.99% | -0.0208 ± 0.16% | 1.51 ± 0.15% |  |
| CC1(C)CON(Cc2ccccc2Cl)C1=O [Clomazone] | -5.32 ± 1.1% | -6.75 ± 0.27% | -6.22 ± 0.37% | -6.24 ± 0.67% | -6.33 ± 1.5% | -5.74 ± 0.57% | -5.91 ± 0.59% | -4.53 ± 0.15% |  |
| CCN(CC)CCOc1ccc(C(=C(Cl)c2ccccc2)c2ccccc2)cc1 [Clomiphene citrate (1:1)] |  |  |  |  |  |  |  |  | LDH release cytotoxicity (0.0265631 µM): -2.02 ± 0.85%; LDH release cytotoxicity (0.084 µM): -1.22 ± 1.1%; LDH release cytotoxicity (0.265631 µM): -0.767 ± 0.54%; LDH release cytotoxicity (0.84 µM): -1.18 ± 0.029%; LDH release cytotoxicity (2.6563132 µM): -0.65 ± 0.39%; LDH release cytotoxicity (8.4 µM): -1.17 ± 0.63%; LDH release cytotoxicity (26.563132 µM): 9.07 ± 8.3%; LDH release cytotoxicity (84 µM): 95.2 ± 1.5% |
| CC(Oc1cccc(Cl)c1)C(=O)O (stereo not given) [Cloprop] | -1.06 ± 1.4% | -0.561 ± 0.06% | -0.691 ± 0.98% | -0.434 ± 0.14% | -0.762 ± 0.08% | -0.167 ± 0.17% | -0.608 ± 0.19% | 0.547 ± 0.3% |  |
| O=C(O)c1nc(Cl)ccc1Cl [Clopyralid-olamine] | -1.75 ± 0.021% | -1.37 ± 0.22% | -2.18 ± 0.81% | -3.35 ± 1.5% | -1.65 ± 0.032% | -1.04 ± 0.99% | -1.18 ± 0.77% | 0.521 ± 0.14% |  |
| O=C(O)c1nc(Cl)ccc1Cl [Clopyralid] | -0.598 ± 0.35% | -1.08 ± 0.48% | -0.606 ± 0.19% | -1.03 ± 0.57% | -0.337 ± 0.046% | 0.0712 ± 0.39% | 0.653 ± 1.2% | 2.21 ± 0.38% |  |
| Oc1ccc(Cl)cc1Cc1ccccc1 [Clorophene] |  |  |  |  |  |  |  |  | LDH release cytotoxicity (0.031939 µM): -1.4 ± 0.39%; LDH release cytotoxicity (0.101 µM): -1.14 ± 0.47%; LDH release cytotoxicity (0.31939 µM): -1.6 ± 0.87%; LDH release cytotoxicity (1.01 µM): -1.11 ± 1.2%; LDH release cytotoxicity (3.1939004 µM): -0.749 ± 0.49%; LDH release cytotoxicity (10.1 µM): -0.231 ± 0.26%; LDH release cytotoxicity (31.939 µM): -0.479 ± 0.25%; LDH release cytotoxicity (101 µM): 54 ± 2% |
| CN/C(=N\[N+](=O)[O-])NCc1cnc(Cl)s1 [Clothianidin] | -0.975 ± 0.7% | -0.34 ± 0.13% | -1.12 ± 0.038% | -0.952 ± 0.36% | -0.743 ± 0.035% | -0.23 ± 0.17% | -0.557 ± 0.27% | 0.586 ± 0.26% |  |
| Clc1ccccc1C(c1ccccc1)(c1ccccc1)n1ccnc1 [Clotrimazole] | -0.964 ± 0.54% | -0.87 ± 0.1% | -1.49 ± 0.34% | -1.36 ± 0.98% | -0.966 ± 0.17% | 4.28 ± 0.79% | 11.6 ± 2.4% | 82.1 ± 1.4% |  |
| COc1cc2c(c(OC)c1OC)-c1ccc(OC)c(=O)cc1C(NC(C)=O)CC2 (stereo not given) [Colchicine] |  | 7.47 ± 1.3% |  | 10.1 ± 2.2% | 11.5 ± 4.3% | 10.1 ± 0.93% | 7.72 ± 1.5% | 5.064 ± 0.022% | LDH release cytotoxicity (0.031623 µM): 2.9 ± 1.9%; LDH release cytotoxicity (0.316228 µM): 10.8 ± 1.7% |
| CC12CCC(=O)C=C1CCC1C2C(O)CC2(C)C(C(=O)CO)CCC12 (stereo not given) [Corticosterone] | -1.65 ± 0.13% | -0.683 ± 1.9% | 0.128 ± 1.4% | -1.19 ± 0.62% | -0.76 ± 0.84% | -0.609 ± 0.51% | -0.274 ± 0.58% | 1.02 ± 0.92% |  |
| CN1C(=O)CCC1c1cccnc1 (stereo not given) [Cotinine] | -0.994 ± 0.49% | -2.34 ± 0.73% | -0.492 ± 0.14% | -1.31 ± 0.42% | -0.499 ± 0.41% | -0.978 ± 0.13% | -0.74 ± 0.22% | 0.597 ± 0.61% |  |
| CCOP(=S)(OCC)Oc1ccc2c(C)c(Cl)c(=O)oc2c1 [Coumaphos] |  | -3.39 ± 0.25% |  | -2.83 ± 0.67% | -3.28 ± 0.22% | -3.57 ± 0.062% | -2.86 ± 0.88% | 5.7 ± 1.4% | LDH release cytotoxicity (0.031623 µM): -0.785 ± 0.75%; LDH release cytotoxicity (0.316228 µM): -2.36 ± 0.68% |
| O=c1ccc2ccccc2o1 [Coumarin] | -1.09 ± 0.14% | -0.766 ± 1.4% | -0.788 ± 0.28% | -1.992 ± 0.0095% | -1.12 ± 0.68% | -2.38 ± 1.8% | -0.666 ± 0.38% | 6.17 ± 9.2% |  |
| CC(C)(OO)c1ccccc1 [Cumene hydroperoxide] | -1.39 ± 0.22% | 0.0774 ± 0.7% | -0.106 ± 0.65% | -0.2 ± 0.59% | 0.797 ± 0.57% | 0.939 ± 1.3% | 0.476 ± 0.51% | 1.68 ± 0.062% |  |
| N#CN [Cyanamide] | -0.717 ± 0.38% | -2.37 ± 0.27% | -1.74 ± 0.7% | -1.73 ± 0.39% | -2.07 ± 0.26% | -1.59 ± 0.22% | -1.21 ± 0.71% | -0.0755 ± 0.84% |  |
| CCNc1nc(Cl)nc(NC(C)(C)C#N)n1 [Cyanazine] | -0.628 ± 0.49% | -0.139 ± 1.2% | -0.711 ± 0.36% | -1.27 ± 0.13% | -0.482 ± 0.15% | -0.431 ± 0.068% | -0.343 ± 0.24% | 0.714 ± 0.2% |  |
| Oc1nc(O)nc(O)n1 [Cyanuric acid] |  |  |  |  |  |  |  |  | LDH release cytotoxicity (0.0314647 µM): -2.84 ± 0.097%; LDH release cytotoxicity (0.0995 µM): -3.15 ± 0.5%; LDH release cytotoxicity (0.3146466 µM): -2.69 ± 0.67%; LDH release cytotoxicity (0.995 µM): -2.08 ± 0.61%; LDH release cytotoxicity (3.14647 µM): -2.52 ± 0.74%; LDH release cytotoxicity (9.95 µM): -1.85 ± 1.4%; LDH release cytotoxicity (31.4647 µM): -1.63 ± 0.51%; LDH release cytotoxicity (99.5 µM): -0.7 ± 1.2% |
| Cc1ccc(-c2c(Cl)nc(C#N)n2S(=O)(=O)N(C)C)cc1 [Cyazofamid] | 1.31 ± 1.8% | -1.5 ± 0.69% | -1.4 ± 1.1% | -0.689 ± 0.31% | -1.5 ± 0.35% | 43.2 ± 2.3% | 52.8 ± 0.71% | 53.7 ± 2.8% |  |
